# Data as given in patent publication US12252492B2, “Substituted fused pyrrolo-diazepinones and uses thereof” (Northwestern University, priority 2018, dated 2025).
# Key:
# Type in all cases: cell-based, human
# T-47D = test: NCI60 one-dose screen, T-47D; conditions: T-47D (Breast Cancer); NCI 60 one-dose, 10^-5 M
# Method: (§1) Anti-cancer activity screening of all compounds was performed by the NCI Developmental Therapeutics Program (DTP) through their NCI60 screening initiative. Assay details can be found at the website dtp.cancer.gov/discovery_development/nci-60/methodology.htm. Information from this website is reproduced here for convenience.
# (§2) As of early 2007 all compounds submitted to the NCI 60 Cell screen are tested initially at a single high dose (10^-5 M) in the full NCI 60 cell panel. Only compounds which satisfy pre-determined threshold inhibition criteria in a minimum number of cell lines will progress to the full 5-dose assay. The threshold inhibition criteria for progression to the 5-dose screen was selected to efficiently capture compounds with anti-proliferative activity based on careful analysis of historical DTP screening data. The threshold criteria may be updated as additional data becomes available.
# (§3) The One-dose data will be reported as a mean graph of the percent growth of treated cells and will be similar in appearance to mean graphs from the 5-dose assay. […]
# (§4) Following drug addition, the plates are incubated for an additional 48 h at 37° C., 5% CO2, 95% air, and 100% relative humidity. […] Bound stain is subsequently solubilized with 10 mM trizma base, and the absorbance is read on an automated plate reader at a wavelength of 515 nm. […]
# OVCAR-8 = test: NCI60 one-dose screen, OVCAR-8; conditions: OVCAR-8 (Ovarian Cancer); NCI 60 one-dose, 10^-5 M
# Method: as §1, §2, §3, §4
# CCRF-CEM = test: NCI60 one-dose screen, CCRF-CEM; conditions: CCRF-CEM (Leukemia); NCI 60 one-dose, 10^-5 M
# Method: as §1, §2, §3, §4
# A549/ATCC = test: NCI60 one-dose screen, A549; conditions: A549/ATCC (Non-Small Cell Lung Cancer); NCI 60 one-dose, 10^-5 M
# Method: as §1, §2
# The One-dose data will be reported as a mean graph of the percent growth of treated cells and will be similar in appearance to mean graphs from the 5-dose assay. The number reported for the One-dose assay is growth relative to the no-drug control, and relative to the time zero number of cells. This allows detection of both growth inhibition (values between 0 and 100) and lethality (values less than 0). This is the same as for the 5-dose assay, described below. For example, a value of 100 means no growth inhibition. A value of 40 would mean 60% growth inhibition. A value of 0 means no net growth over the course of the experiment. A value of −40 would mean 40% lethality. A value of −100 means all cells are dead. Information from the One-dose mean graph is available for COMPARE analysis.
# The human tumor cell lines of the cancer screening panel are grown in RPMI 1640 medium containing 5% fetal bovine serum and 2 mM L-glutamine. For a typical screening experiment, cells are inoculated into 96 well microtiter plates in 100 μL at plating densities ranging from 5,000 to 40,000 cells/well depending on the doubling time of individual cell lines. After cell inoculation, the microtiter plates are incubated at 37° C., 5% CO2, 95% air and 100% relative humidity for 24 h prior to addition of experimental drugs.
# After 24 h, two plates of each cell line are fixed in situ with TCA, to represent a measurement of the cell population for each cell line at the time of drug addition (Tz). Experimental drugs are solubilized in dimethyl sulfoxide at 400-fold the desired final maximum test concentration and stored frozen prior to use. At the time of drug addition, an aliquot of frozen concentrate is thawed and diluted to twice the desired final maximum test concentration with complete medium containing 50 μg/ml gentamicin. Additional four, 10-fold or ½ log serial dilutions are made to provide a total of five drug concentrations plus control. Aliquots of 100 μl of these different drug dilutions are added to the appropriate microtiter wells already containing 100 μl of medium, resulting in the required final drug concentrations.
# Following drug addition, the plates are incubated for an additional 48 h at 37° C., 5% CO2, 95% air, and 100% relative humidity. For adherent cells, the assay is terminated by the addition of cold TCA. Cells are fixed in situ by the gentle addition of 50 μl of cold 50% (w/v) TCA (final concentration, 10% TCA) and incubated for 60 minutes at 4° C. The supernatant is discarded, and the plates are washed five times with tap water and air dried. Sulforhodamine B (SRB) solution (100 μl) at 0.4% (w/v) in 1% acetic acid is added to each well, and plates are incubated for 10 minutes at room temperature. After staining, unbound dye is removed by washing five times with 1% acetic acid and the plates are air dried. Bound stain is subsequently solubilized with 10 mM trizma base, and the absorbance is read on an automated plate reader at a wavelength of 515 nm. […]
# OVCAR-3 = test: NCI60 one-dose screen, OVCAR-3; conditions: OVCAR-3 (Ovarian Cancer); NCI 60 one-dose, 10^-5 M
# Method: as §1, §2, §3, §4
# HCC-2998 = test: NCI60 one-dose screen, HCC-2998; conditions: HCC-2998 (Colon Cancer); NCI 60 one-dose, 10^-5 M
# Method: as §1, §2, §3, §4
# SK-OV-3 = test: NCI60 one-dose screen, SK-OV-3; conditions: SK-OV-3 (Ovarian Cancer); NCI 60 one-dose, 10^-5 M
# Method: as §1, §2, §3, §4
# M14 = test: NCI60 one-dose screen, M14; conditions: M14 (Melanoma); NCI 60 one-dose, 10^-5 M
# Method: as §1, §2, §3, §4
# UACC-62 = test: NCI60 one-dose screen, UACC-62; conditions: UACC-62 (Melanoma); NCI 60 one-dose, 10^-5 M
# Method: as §1, §2, §3, §4
# SW-620 = test: NCI60 one-dose screen, SW-620; conditions: SW-620 (Colon Cancer); NCI 60 one-dose, 10^-5 M
# Method: as §1, §2, §3, §4
# COLO 205 = test: NCI60 one-dose screen, COLO 205; conditions: COLO 205 (Colon Cancer); NCI 60 one-dose, 10^-5 M
# Method: as §1, §2, §3, §4
# SF-539 = test: NCI60 one-dose screen, SF-539; conditions: SF-539 (CNS Cancer); NCI 60 one-dose, 10^-5 M
# Method: as §1, §2, §3, §4
# TK-10 = test: NCI60 one-dose screen, TK-10; conditions: TK-10 (Renal Cancer); NCI 60 one-dose, 10^-5 M
# Method: as §1, §2, §3, §4
# KM12 = test: NCI60 one-dose screen, KM12; conditions: KM12 (Colon Cancer); NCI 60 one-dose, 10^-5 M
# Method: as §1, §2, §3, §4
# UACC-257 = test: NCI60 one-dose screen, UACC-257; conditions: UACC-257 (Melanoma); NCI 60 one-dose, 10^-5 M
# Method: as §1, §2, §3, §4
# EKVX = test: NCI60 one-dose screen, EKVX; conditions: EKVX (Non-Small Cell Lung Cancer); NCI 60 one-dose, 10^-5 M
# Method: as §1, §2, §3, §4
# MCF7 = test: NCI60 one-dose screen, MCF7; conditions: MCF7 (Breast Cancer); NCI 60 one-dose, 10^-5 M
# Method: as §1, §2, §3, §4
# HT29 = test: NCI60 one-dose screen, HT29; conditions: HT29 (Colon Cancer); NCI 60 one-dose, 10^-5 M
# Method: as §1, §2, §3, §4
SMILES,Growth Percent (T-47D),Growth Percent (OVCAR-8),Growth Percent (CCRF-CEM),Growth Percent (A549/ATCC),Growth Percent (OVCAR-3),Growth Percent (HCC-2998),Growth Percent (SK-OV-3),Growth Percent (M14),Growth Percent (UACC-62),Growth Percent (SW-620),Growth Percent (COLO 205),Growth Percent (SF-539),Growth Percent (TK-10),Growth Percent (KM12),Growth Percent (UACC-257),Growth Percent (EKVX),Growth Percent (MCF7),Growth Percent (HT29)
CC(=O)N1c2ccccc2NC2=C(C(=O)N(Cc3ccccc3)C2(C)C)C1c1ccco1 (stereo not drawn) [NUCC-608455],35.10%,26.13%,24.15%,22.02%,−7.65%,3.73%,22.71%,−13.58%,21.25%,21.68%,16.77%,−17.85%,54.92%,14.83%,77.61%,35.37%,15.26%,9.99%
CC(=O)N1c2ccccc2NC2=C(C(=O)N(C)C2(C)C)C1c1ccccc1 (stereo not drawn) [NUCC-60872],28.72%,65.84%,20.66%,80.32%,18.09%,60.81%,55.42%,21.48%,32.33%,24.24%,14.23%,20.14%,87.08%,19.79%,36.37%,61.53%,16.41%,25.22%
